Data taken from ChEMBL document CHEMBL4649989, “Design of a Chemical Probe for the Bromodomain and Plant Homeodomain Finger-Containing (BRPF) Family of Proteins” (J Med Chem, 2017).
Several values for one entry are separate records, joined by “and”; a condition that tells them apart may be missing. Equal entries are not always repeated.

Tests used:
[1] = target: Chromatin remodeling regulator CECR2 (Homo sapiens) (UniProt Q9BXF3); settings: Compound concentration 25.0 uM, Protein concentration 19.0 uM
[2] = target: Bromodomain and WD repeat-containing protein 3 (Homo sapiens) (UniProt Q6RI45); settings: Compound concentration 10.0 uM
[3] = target: Nuclear body protein SP140-like protein (Homo sapiens) (UniProt Q9H930); settings: Compound concentration 10.0 uM
[4] = target: Transcription intermediary factor 1-alpha (Homo sapiens) (UniProt O15164); settings: Compound concentration 10.0 uM
[5] = target: Protein polybromo-1 (Homo sapiens) (UniProt Q86U86); settings: Compound concentration 10.0 uM
[6] = target: Chromatin remodeling regulator CECR2 (Homo sapiens) (UniProt Q9BXF3); settings: Compound concentration 10.0 uM
[7] = target: Nucleosome-remodeling factor subunit BPTF (Homo sapiens) (UniProt Q12830); settings: Compound concentration 10.0 uM
[8] = target: Bromodomain-containing protein 4 (Homo sapiens) (UniProt O60885); settings: Compound concentration 10.0 uM
[9] = target: Transcription initiation factor TFIID subunit 1 (Homo sapiens) (UniProt P21675); settings: Compound concentration 10.0 uM
[10] = target: E3 ubiquitin-protein ligase TRIM33 (Homo sapiens) (UniProt Q9UPN9); settings: Compound concentration 25.0 uM
[11] = target: PH-interacting protein (Homo sapiens) (UniProt Q8WWQ0); settings: Compound concentration 50.0 uM, Protein concentration 0.025 uM
[12] = target: Bromodomain-containing protein 9 (Homo sapiens) (UniProt Q9H8M2); settings: Compound concentration 10.0 uM
[13] = target: Protein polybromo-1 (Homo sapiens) (UniProt Q86U86); settings: Compound concentration 10.0 uM; remark: listed apart in the source
[14] = target: Nucleosome-remodeling factor subunit BPTF (Homo sapiens) (UniProt Q12830); settings: Compound concentration 25.0 uM, Protein concentration 19.0 uM
Description: Alphascreen assay. Domain start/stop: S2791-H2911

[15] = target: Transcription initiation factor TFIID subunit 1-like (Homo sapiens) (UniProt Q8IZX4); settings: Compound concentration 10.0 uM
[16] = target: Bromodomain adjacent to zinc finger domain protein 2A (Homo sapiens) (UniProt Q9UIF9); settings: Compound concentration 10.0 uM
[17] = target: Bromodomain and PHD finger-containing protein 3 (Homo sapiens) (UniProt Q9ULD4); settings: Compound concentration 10.0 uM
[18] = target: Transcription intermediary factor 1-alpha (Homo sapiens) (UniProt O15164); settings: Compound concentration 10.0 uM; remark: listed apart in the source
[19] = target: SWI/SNF-related matrix-associated actin-dependent regulator of chromatin subfamily A member 4 (Homo sapiens) (UniProt P51532); settings: Compound concentration 10.0 uM
[20] = target: Bromodomain-containing protein 9 (Homo sapiens) (UniProt Q9H8M2); settings: Compound concentration 10.0 uM; remark: listed apart in the source
Description: Thermal Shift Assay. Domain start/stop: L14-S134

[21] = target: Transcription initiation factor TFIID subunit 1-like (Homo sapiens) (UniProt Q8IZX4); settings: Compound concentration 10.0 uM; remark: listed apart in the source
[22] = target: SWI/SNF-related matrix-associated actin-dependent regulator of chromatin subfamily A member 2 (Homo sapiens) (UniProt P51531); settings: Compound concentration 10.0 uM
Peregrin = Peregrin (Homo sapiens, UniProt P55201); experiment: Alphascreen assay. Binding to BRPF1B (domain start/stop: M626-G740) by alphascreen assay
[23] = target: Bromodomain-containing protein 1 (Homo sapiens) (UniProt O95696); settings: Compound concentration 25.0 uM, Protein concentration 50.0 uM
Description: Alphascreen assay. Domain start/stop: E556-A688

[24] = target: Protein polybromo-1 (Homo sapiens) (UniProt Q86U86); settings: Compound concentration 10.0 uM; remark: listed apart in the source
[25] = target: Bromodomain-containing protein 7 (Homo sapiens) (UniProt Q9NPI1); settings: Compound concentration 10.0 uM
[26] = target: ATPase family AAA domain-containing protein 2 (Homo sapiens) (UniProt Q6PL18); settings: Compound concentration 10.0 uM
[27] = target: Nuclear body protein SP140 (Homo sapiens) (UniProt Q13342); settings: Compound concentration 10.0 uM
[28] = target: Bromodomain adjacent to zinc finger domain protein 1A (Homo sapiens) (UniProt Q9NRL2); settings: Compound concentration 10.0 uM
[29] = target: Histone acetyltransferase KAT2B (Homo sapiens) (UniProt Q92831); settings: Compound concentration 10.0 uM
[30] = target: Bromodomain-containing protein 3 (Homo sapiens) (UniProt Q15059); settings: Compound concentration 10.0 uM
[31] = target: Bromodomain testis-specific protein (Homo sapiens) (UniProt Q58F21); settings: Compound concentration 10.0 uM
[32] = target: Histone acetyltransferase p300 (Homo sapiens) (UniProt Q09472); settings: Compound concentration 10.0 uM
[33] = target: Histone acetyltransferase KAT2A (Homo sapiens) (UniProt Q92830); settings: Compound concentration 10.0 uM
[34] = target: Bromodomain testis-specific protein (Homo sapiens) (UniProt Q58F21); settings: Compound concentration 10.0 uM; remark: listed apart in the source
[35] = target: Chromatin remodeling regulator CECR2 (Homo sapiens) (UniProt Q9BXF3); settings: Compound concentration 10.0 uM; remark: listed apart in the source
Peregrin (Homo sapiens) [36] = target: Peregrin (Homo sapiens) (UniProt P55201); settings: Compound concentration 10.0 uM
[37] = target: Protein polybromo-1 (Homo sapiens) (UniProt Q86U86); settings: Compound concentration 10.0 uM; remark: listed apart in the source
[38] = target: Bromodomain-containing protein 2 (Homo sapiens) (UniProt P25440); settings: Compound concentration 10.0 uM
[39] = target: Bromodomain and WD repeat-containing protein 1 (Homo sapiens) (UniProt Q9NSI6); settings: Compound concentration 10.0 uM
[40] = target: Transcription initiation factor TFIID subunit 1 (Homo sapiens) (UniProt P21675); settings: Compound concentration 10.0 uM; remark: listed apart in the source
[41] = target: PH-interacting protein (Homo sapiens) (UniProt Q8WWQ0); settings: Compound concentration 10.0 uM
[42] = target: Bromodomain-containing protein 4 (Homo sapiens) (UniProt O60885); settings: Compound concentration 10.0 uM; remark: listed apart in the source
[43] = target: ATPase family AAA domain-containing protein 2 (Homo sapiens) (UniProt Q6PL18); settings: Compound concentration 25.0 uM, Protein concentration 225.0 uM
Description: Alphascreen assay. Domain start/stop: Q981-R1108

[44] = target: Bromodomain-containing protein 1 (Homo sapiens) (UniProt O95696); settings: Compound concentration 10.0 uM
Peregrin (Homo sapiens) [45] = target: Peregrin (Homo sapiens) (UniProt P55201); settings: Compound concentration 10.0 uM; remark: listed apart in the source
[46] = target: Histone-lysine N-methyltransferase ASH1L (Homo sapiens) (UniProt Q9NR48); settings: Compound concentration 10.0 uM
[47] = target: ATPase family AAA domain-containing protein 2B (Homo sapiens) (UniProt Q9ULI0); settings: Compound concentration 10.0 uM
[48] = target: CREB-binding protein (Homo sapiens) (UniProt Q92793); settings: Compound concentration 10.0 uM
[49] = target: Transcription intermediary factor 1-beta (Homo sapiens) (UniProt Q13263); settings: Compound concentration 10.0 uM
[50] = target: Protein polybromo-1 (Homo sapiens) (UniProt Q86U86); settings: Compound concentration 10.0 uM; remark: listed apart in the source
[51] = target: CREB-binding protein (Homo sapiens) (UniProt Q92793); settings: Compound concentration 5.0 uM
Description: Alphascreen assay. Domain start/stop: R1081-G1197

[52] = target: Protein polybromo-1 (Homo sapiens) (UniProt Q86U86); settings: Compound concentration 10.0 uM; remark: listed apart in the source
[53] = target: Bromodomain adjacent to zinc finger domain protein 2B (Homo sapiens) (UniProt Q9UIF8); settings: Compound concentration 10.0 uM
[54] = target: Histone-lysine N-methyltransferase 2A (Homo sapiens) (UniProt Q03164); settings: Compound concentration 10.0 uM
[55] = target: Bromodomain-containing protein 3 (Homo sapiens) (UniProt Q15059); settings: Compound concentration 10.0 uM; remark: listed apart in the source
[56] = target: Bromodomain-containing protein 1 (Homo sapiens, UniProt O95696)
[57] = target: Tyrosine-protein kinase BAZ1B (Homo sapiens) (UniProt Q9UIG0); settings: Compound concentration 10.0 uM
[58] = target: Bromodomain-containing protein 2 (Homo sapiens) (UniProt P25440); settings: Compound concentration 10.0 uM; remark: listed apart in the source

Sequence of Bromodomain-containing protein 3 (Homo sapiens) (Q15059 2-726 limits assumed): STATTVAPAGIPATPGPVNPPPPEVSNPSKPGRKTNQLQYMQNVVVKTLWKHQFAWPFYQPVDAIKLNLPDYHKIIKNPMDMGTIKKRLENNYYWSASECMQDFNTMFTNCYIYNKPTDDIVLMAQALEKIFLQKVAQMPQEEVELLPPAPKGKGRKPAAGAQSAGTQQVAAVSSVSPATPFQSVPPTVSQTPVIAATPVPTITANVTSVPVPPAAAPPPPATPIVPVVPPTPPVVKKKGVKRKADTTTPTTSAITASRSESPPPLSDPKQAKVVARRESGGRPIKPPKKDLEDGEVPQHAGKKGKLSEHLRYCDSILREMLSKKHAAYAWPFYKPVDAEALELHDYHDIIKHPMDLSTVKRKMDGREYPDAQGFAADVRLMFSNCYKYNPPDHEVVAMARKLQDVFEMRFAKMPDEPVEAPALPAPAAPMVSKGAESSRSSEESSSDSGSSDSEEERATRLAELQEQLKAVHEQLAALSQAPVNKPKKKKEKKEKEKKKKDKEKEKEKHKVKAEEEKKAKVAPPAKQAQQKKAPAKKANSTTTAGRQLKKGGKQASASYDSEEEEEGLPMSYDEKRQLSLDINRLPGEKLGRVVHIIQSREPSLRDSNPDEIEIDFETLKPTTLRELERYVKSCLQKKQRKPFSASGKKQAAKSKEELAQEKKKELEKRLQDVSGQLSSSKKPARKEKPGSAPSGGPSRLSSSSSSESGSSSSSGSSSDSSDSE
Sequence of Chromatin remodeling regulator CECR2 (Homo sapiens) (Q9BXF3 whole entry, looked up): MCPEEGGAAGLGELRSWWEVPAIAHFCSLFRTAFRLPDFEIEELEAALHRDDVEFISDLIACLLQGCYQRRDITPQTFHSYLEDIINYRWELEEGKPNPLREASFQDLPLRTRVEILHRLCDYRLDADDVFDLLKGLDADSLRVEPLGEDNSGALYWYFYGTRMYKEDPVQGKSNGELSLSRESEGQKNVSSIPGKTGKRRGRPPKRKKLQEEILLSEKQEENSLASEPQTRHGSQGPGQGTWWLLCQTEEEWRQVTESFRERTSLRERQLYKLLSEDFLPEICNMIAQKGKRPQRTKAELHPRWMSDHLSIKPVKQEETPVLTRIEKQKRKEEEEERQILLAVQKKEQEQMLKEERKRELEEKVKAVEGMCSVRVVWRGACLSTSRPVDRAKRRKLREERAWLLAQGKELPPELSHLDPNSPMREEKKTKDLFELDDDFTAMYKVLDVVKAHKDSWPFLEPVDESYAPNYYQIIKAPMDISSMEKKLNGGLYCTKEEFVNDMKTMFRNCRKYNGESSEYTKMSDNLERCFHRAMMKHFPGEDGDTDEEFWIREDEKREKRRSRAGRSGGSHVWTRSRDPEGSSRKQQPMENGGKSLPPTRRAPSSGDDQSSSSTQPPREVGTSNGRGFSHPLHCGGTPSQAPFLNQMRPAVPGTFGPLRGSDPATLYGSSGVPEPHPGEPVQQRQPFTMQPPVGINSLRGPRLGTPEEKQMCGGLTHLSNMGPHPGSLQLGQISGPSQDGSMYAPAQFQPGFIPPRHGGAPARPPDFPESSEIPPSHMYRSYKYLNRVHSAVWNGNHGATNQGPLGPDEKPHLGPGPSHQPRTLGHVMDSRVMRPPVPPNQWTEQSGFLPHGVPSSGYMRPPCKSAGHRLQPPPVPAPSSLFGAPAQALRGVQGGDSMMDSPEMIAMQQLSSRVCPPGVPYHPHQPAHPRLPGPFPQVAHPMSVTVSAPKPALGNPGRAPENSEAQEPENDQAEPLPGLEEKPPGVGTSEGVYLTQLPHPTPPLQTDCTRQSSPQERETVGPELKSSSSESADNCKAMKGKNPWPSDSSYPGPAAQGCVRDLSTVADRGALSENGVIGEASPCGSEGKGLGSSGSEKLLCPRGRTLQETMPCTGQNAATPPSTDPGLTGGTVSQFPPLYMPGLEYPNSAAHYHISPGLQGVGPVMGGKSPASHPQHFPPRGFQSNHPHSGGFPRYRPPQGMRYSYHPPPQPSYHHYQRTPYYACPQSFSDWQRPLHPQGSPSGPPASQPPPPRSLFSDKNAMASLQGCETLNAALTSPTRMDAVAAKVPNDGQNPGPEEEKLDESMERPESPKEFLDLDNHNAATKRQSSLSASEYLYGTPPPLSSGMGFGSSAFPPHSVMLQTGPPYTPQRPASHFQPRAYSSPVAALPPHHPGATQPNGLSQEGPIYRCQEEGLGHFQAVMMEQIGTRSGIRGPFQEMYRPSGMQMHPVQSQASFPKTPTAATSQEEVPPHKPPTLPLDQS
Sequence of Transcription intermediary factor 1-alpha (Homo sapiens) (O15164 whole entry): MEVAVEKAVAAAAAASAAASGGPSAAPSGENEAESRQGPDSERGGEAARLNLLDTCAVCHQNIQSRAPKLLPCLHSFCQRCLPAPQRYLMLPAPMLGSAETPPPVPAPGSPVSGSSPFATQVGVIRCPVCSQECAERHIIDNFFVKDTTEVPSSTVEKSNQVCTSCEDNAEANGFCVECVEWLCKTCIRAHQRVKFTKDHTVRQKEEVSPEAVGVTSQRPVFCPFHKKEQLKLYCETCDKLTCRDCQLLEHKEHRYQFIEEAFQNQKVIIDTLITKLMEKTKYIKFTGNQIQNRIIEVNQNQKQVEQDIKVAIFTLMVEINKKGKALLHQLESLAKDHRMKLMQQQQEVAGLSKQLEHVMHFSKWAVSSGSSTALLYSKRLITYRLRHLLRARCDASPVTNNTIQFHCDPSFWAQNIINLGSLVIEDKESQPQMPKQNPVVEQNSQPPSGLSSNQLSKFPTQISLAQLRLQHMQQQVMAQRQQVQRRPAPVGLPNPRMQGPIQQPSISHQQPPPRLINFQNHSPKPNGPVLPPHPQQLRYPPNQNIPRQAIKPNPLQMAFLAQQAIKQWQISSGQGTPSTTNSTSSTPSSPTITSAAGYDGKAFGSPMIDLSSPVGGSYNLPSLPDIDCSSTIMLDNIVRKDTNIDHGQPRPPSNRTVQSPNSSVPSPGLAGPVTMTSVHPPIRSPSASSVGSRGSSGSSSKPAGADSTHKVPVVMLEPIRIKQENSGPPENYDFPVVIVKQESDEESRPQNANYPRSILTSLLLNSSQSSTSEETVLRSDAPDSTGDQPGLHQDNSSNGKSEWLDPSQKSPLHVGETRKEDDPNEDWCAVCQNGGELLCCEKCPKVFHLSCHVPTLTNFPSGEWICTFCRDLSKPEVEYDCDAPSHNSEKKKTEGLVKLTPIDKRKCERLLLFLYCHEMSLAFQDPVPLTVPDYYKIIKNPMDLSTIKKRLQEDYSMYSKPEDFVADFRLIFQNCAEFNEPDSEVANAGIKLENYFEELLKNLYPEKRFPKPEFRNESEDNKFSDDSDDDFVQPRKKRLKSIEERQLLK
Sequence of Peregrin (Homo sapiens) (P55201 whole entry): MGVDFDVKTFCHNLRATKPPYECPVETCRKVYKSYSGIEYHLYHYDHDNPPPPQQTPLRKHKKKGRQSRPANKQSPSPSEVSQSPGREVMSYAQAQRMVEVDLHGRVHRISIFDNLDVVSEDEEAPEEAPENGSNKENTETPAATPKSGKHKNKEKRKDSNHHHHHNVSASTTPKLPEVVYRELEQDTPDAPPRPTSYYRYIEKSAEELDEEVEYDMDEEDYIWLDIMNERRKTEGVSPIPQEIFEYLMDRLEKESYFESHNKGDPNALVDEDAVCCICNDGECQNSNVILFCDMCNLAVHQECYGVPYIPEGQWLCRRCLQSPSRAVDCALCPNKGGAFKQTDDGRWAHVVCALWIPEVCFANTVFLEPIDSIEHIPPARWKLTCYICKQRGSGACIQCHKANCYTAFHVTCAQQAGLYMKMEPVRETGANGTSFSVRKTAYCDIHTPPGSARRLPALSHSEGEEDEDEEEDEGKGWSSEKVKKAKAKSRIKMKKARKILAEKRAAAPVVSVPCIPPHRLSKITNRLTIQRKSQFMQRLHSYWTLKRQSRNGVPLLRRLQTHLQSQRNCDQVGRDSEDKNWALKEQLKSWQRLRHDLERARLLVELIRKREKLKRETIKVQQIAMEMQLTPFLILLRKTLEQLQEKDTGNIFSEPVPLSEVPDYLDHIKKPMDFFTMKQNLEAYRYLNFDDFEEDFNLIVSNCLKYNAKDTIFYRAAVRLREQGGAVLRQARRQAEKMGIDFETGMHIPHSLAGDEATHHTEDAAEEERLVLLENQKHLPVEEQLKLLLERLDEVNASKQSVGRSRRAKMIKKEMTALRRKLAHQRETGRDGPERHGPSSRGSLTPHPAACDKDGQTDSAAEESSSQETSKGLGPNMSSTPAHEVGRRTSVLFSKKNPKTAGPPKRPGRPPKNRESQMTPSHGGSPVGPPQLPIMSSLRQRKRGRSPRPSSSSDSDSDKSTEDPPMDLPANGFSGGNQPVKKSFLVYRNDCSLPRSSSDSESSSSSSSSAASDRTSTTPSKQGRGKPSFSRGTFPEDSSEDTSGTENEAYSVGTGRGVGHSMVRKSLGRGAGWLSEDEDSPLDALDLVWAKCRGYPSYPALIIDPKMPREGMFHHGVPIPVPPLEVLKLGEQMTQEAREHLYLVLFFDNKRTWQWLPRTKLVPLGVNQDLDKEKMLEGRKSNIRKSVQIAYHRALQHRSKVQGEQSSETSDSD
Sequence of Bromodomain-containing protein 9 (Homo sapiens) (Q9H8M2 whole entry): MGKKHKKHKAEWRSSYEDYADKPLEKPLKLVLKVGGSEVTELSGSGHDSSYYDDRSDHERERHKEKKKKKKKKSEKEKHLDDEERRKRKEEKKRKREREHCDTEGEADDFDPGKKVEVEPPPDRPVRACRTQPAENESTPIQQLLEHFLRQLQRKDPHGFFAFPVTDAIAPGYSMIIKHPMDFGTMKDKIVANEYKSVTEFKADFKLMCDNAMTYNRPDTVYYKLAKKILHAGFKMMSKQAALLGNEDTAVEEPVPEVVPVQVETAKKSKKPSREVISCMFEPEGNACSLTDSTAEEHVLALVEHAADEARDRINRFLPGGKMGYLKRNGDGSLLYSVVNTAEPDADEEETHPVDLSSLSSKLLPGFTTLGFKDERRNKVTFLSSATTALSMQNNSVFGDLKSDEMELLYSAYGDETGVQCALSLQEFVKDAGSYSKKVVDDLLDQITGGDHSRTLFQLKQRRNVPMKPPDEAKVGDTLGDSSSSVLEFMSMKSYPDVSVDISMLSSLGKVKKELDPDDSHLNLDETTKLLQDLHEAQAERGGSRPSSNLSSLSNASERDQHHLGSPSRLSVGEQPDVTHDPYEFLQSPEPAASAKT
Sequence of Peregrin (P55201 whole entry): as the sequence (P55201 whole entry) above

`COc1cc(C#N)ccc1S(=O)(=O)Nc1ccc2c(c1)cc(C)c(=O)n2C` was tested, and the inhibition [1] was 35.4%, the ΔTm [2] was 2.08 °C and the ΔTm [3] was 1.35 °C. The ΔTm [4] was 2.11 °C and 2.01 °C, the ΔTm [5] was 0.79 °C and the ΔTm [6] was 0.43 °C. The ΔTm [7] was 0.31 °C, the ΔTm [8] was 0.14 °C and the ΔTm [9] was 0.55 °C. For the same compound, the inhibition [10] was 9.82%, the inhibition [11] was 6.61% and 8.15% and the ΔTm [12] was 4.57 °C and 3.61 °C. For the same compound, the ΔTm [13] was 0.3 °C, the inhibition [14] was 49.2% and the ΔTm [15] was 0.72 °C. The ΔTm [16] was -0.24 °C, the ΔTm [17] was 5.43 °C and the ΔTm [18] was 1.64 °C. The ΔTm [19] was 0.38 °C, the ΔTm [20] was 5.4 °C and the ΔTm [21] was 0.81 °C. For the same compound, the ΔTm [22] was 0.58 °C, the IC50 (Peregrin) was 47.2 nM and the inhibition [23] was 99.7%. The ΔTm [24] was 0.58 °C, the ΔTm [25] was 6.81 °C and the ΔTm [26] was -0.43 °C. The ΔTm [27] was 1.1 °C, the ΔTm [28] was 0.38 °C and the ΔTm [29] was 0.53 °C. For the same compound, the ΔTm [30] was 0.17 °C, the ΔTm [31] was 0.32 °C and the ΔTm [32] was 1.15 °C. For the same compound, the ΔTm [33] was 0.45 °C, the ΔTm [34] was 0.25 °C and the ΔTm [35] was 0.42 °C. It also gave a ΔTm (Peregrin (Homo sapiens) [36]) of 1.19 °C, a ΔTm [37] of 0.3 °C and a ΔTm [38] of 0.62 °C. It also gave a ΔTm [39] of 0.74 °C, a ΔTm [40] of 0.4 °C and a ΔTm [41] of -2.61 °C. For the same compound, the ΔTm [42] was 0.93 °C and 1.25 °C, the inhibition [43] was 4.03% and the ΔTm [44] was 5.67 °C. The ΔTm (Peregrin (Homo sapiens) [45]) was 12.3 °C and 10.8 °C, the ΔTm [46] was 0.15 °C and the ΔTm [47] was -0.01 °C. For the same compound, the ΔTm [48] was 0.49 °C and 1.24 °C, the ΔTm [49] was 1.21 °C and the ΔTm [50] was 0.79 °C. It also gave an inhibition [51] of 4.5%, a ΔTm [52] of 0.5 °C and a ΔTm [53] of 0.1 °C. For the same compound, the ΔTm [54] was 0.47 °C, the ΔTm [55] was 0.83 °C and the IC50 [56] was 315 nM. The ΔTm [57] was 0.4 °C and the ΔTm [58] was 0.11 °C.
